The results in this text go back to ChEMBL document CHEMBL1136697, “3D-QSAR studies on thieno[3,2-d]pyrimidines as phosphodiesterase IV inhibitors” (Bioorg Med Chem Lett, 2003).

The IC50 is the midpoint of a concentration-inhibition curve.

Molecules are shown by their SMILES.

The assay addresses Phosphodiesterase 4 (Cavia porcellus). The assay is described as follows: Inhibitory activity against (PDE IV) phosphodiesterase IV in guinea pig articular tissue.
`c1ccc(CNc2nc(CN3CCCCC3)nc3ccsc23)cc1` returned an IC50 of 65 µM. As for `c1ccc(CNc2nc(CCCCOc3ccccc3)nc3ccsc23)cc1`, the figure is 4.7 µM; as for `CCCCc1nc(NCc2ccccc2)c2occc2n1`, 1.1 µM.
